Counter-ions that a name gives are not always drawn.

For one data set, the system named is migraine patients. The experiment in a line: Earlier phase II study of metoclopramide on pain variables. In kind it is in vivo, human.
For data set [1] the following is noted: human, in vivo.
Method: Twenty-four healthy volunteers (14 females and 10 males), aged 20–55 years, received each of the four treatments. […] Standard pharmacokinetic parameters were calculated, including maximum plasma concentrations over the entire sampling phase (Cmax), time to attain maximal plasma concentrations (Tmax), and area under the plasma concentration-time curve (AUCI-time 0 to infinity).
For data set [2] the following is noted: naproxen sodium: water of neutral pH; cited from earlier work.
For data set [3] the following is noted: cited from earlier work; for half-life: pharmacokinetic half-life; for time of peak plasma concentrations: after oral dosing, normal subjects.

In the case of `CCN(CC)CCNC(=O)c1cc(Cl)c(N)cc1OC` [Metoclopramide hydrochloride, metoclopramide hydrochloride], in the data set on migraine patients, the “effect on pain variables” value was “without significant effect”. Further, the tolerability entry in data set [1] was “well tolerated”. In addition, in data set [2], the solubility in water result is reported as “freely soluble”.

One may read the half-life as how long it takes for the measured level to halve. With `O=C(c1ccccc1)c1ccc2n1CCC2C(=O)O` (stereo not shown) [ketorolac], the half-life in data set [3] was 8 to 9 h.

On to `Cc1cccc(Nc2ccccc2C(=O)O)c1C` [mefenamic acid], for which, in data set [3], the half-life entry is “up to 4 hours”.

With `COc1ccc2cc([C@H](C)C(=O)O)ccc2c1` [naproxen], the tolerability result in data set [1] is reported as “well tolerated”.

As to `CC(=O)Oc1ccccc1C(=O)O` [aspirin], in data set [3], the “time of peak plasma concentrations” value was “about 1 hour”. For the same compound, the plasma half life entry in data set [3] (in vivo) was “very short”.

Turning to `CC(=O)Nc1ccc(O)cc1` [acetaminophen], in data set [3], the “time of peak plasma concentrations” value was “about 1 hour”.

Consider `Cc1ccc(-c2cc(C(F)(F)F)nn2-c2ccc(S(N)(=O)=O)cc2)cc1` [celecoxib], for which the “time to peak plasma levels” value in data set [3] (in vivo) was “approximately 3 hours”. In addition, in data set [3], the half-life result is reported as “approximately 11 hours”.

Turning to `CC(C(=O)O)c1ccc(-c2ccccc2)c(F)c1` (stereo not shown) [flurbiprofen], in data set [3], the half-life result is recorded as “about 6 hours”.

Take `CC(C(=O)O)c1cccc(C(=O)c2ccccc2)c1` (stereo not shown) [ketoprofen]: the “time to peak plasma levels” value in data set [3] (in vivo) was “one-half to 2”.

With `Cc1ccc(Cl)c(Nc2ccccc2C(=O)O)c1Cl` [meclofenamate], in data set [3] (in vivo), the “time to peak plasma levels” value was 0.5 to 1 h.

As to `CCc1cccc2c3c([nH]c12)C(CC)(CC(=O)O)OCC3` (stereo not shown) [etodolac], the half-life entry in data set [3] is listed as “about 7 hours”.

In the case of `O=C(O)CCc1nc(-c2ccccc2)c(-c2ccccc2)o1` [oxaprozin], the half-life in data set [3] was 42 to 50 h.

(Values after patent US7030162B2, “Treatment of migraine headache” (POZEN Inc., priority 1996, dated 2006).)
